Source: patent US12655174B2, “Adenosine A3 receptor agonists, preparation methods and uses thereof” (ZHEJIANG VIMGREEN PHARMACEUTICALS, LTD., priority 2020, dated 2026)
“And” between values parts separate entries of the source, which are not always exact repeats. Equal values may be shown once.

Tests used:
[1] = Pharmacokinetic test of compound in SD rat; type: in vivo; settings: SD rats, intragastric administration (IG), cassette dosing
Procedure: Example 28: Pharmacokinetic Test of Compound in SD Rat
The animal species used in this experiment were SD rats. There were 3 animals per group. The rats were dosed in cassette format, i.e., multiple (1-6) different compounds were dosed simultaneously to the same group of the SD rats. The vehicle used for the drug was 5% DMSO+5% Solutl+90% ([…] methylcellulose M450), and the administration route was intragastric administration (IG).

[2] = biological target: T1, ADORA3 receptor (CHO cells stably expressing ADORA3 receptor) (Homo sapiens, UniProt P0DMS8); assay: Effect of compound on intracellular cAMP level by adenosine A3 receptor agonism; type: cell-based; settings: forskolin-stimulated
T1 construct: expressed in transfected cells
T1 sequence (P0DMS8 1-318): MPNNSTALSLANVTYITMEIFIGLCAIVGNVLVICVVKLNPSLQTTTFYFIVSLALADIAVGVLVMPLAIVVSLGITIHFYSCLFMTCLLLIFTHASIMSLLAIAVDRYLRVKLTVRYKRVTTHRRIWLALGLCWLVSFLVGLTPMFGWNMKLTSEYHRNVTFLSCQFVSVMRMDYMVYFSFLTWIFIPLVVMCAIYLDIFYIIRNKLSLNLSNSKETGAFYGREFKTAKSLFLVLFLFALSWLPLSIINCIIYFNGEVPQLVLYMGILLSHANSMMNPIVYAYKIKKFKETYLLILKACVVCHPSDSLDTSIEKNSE
Procedure: Example 26: Test the Effect of Compound on Intracellular cAMP Level by Adenosine A3 Receptor Agonism
• 1) 1×HBSS with Ca2+ and Mg2+ (14 mL), 1 M HEPES (75 μL), a 7.5% (w/v) BSA stabilizer (pH 7.4, 200 μL), and 20 mM rolipram (7.5 μL) were respectively prepared as cAMP assay buffer. • 2) Preparation of compound source plate • a. […] A 10 mM stock solution was subjected to a 3-fold serial dilution by 100% (v/v) DMSO to prepare 10 doses of the test substance. • c. 1 mM of Forskolin was prepared by 100% (v/v) DMSO. • 3) Preparation of test plate • a. Prior to the assay, CHO cells stably expressing ADORA3 receptor were harvested and the cells were counted by using a Countess cell counter. […] The cells were seeded at a density of 2,000 cells/well in a 384-well plate. • 4) 10 nL/well of the serially diluted compound and 10 nL/well of 1 mM of forskolin were transferred to each well with ADORA3 receptor expressing cells by using Echo550. • 5) A cell plate was centrifuged at 1,000 rpm for 1 minute and then stirred at 600 rpm for 2 minutes. The plate was incubated at 37° C. • 6) An Eu-cAMP tracer working solution and an Ulight-anti-cAMP working solution were prepared according to the following table.
• 7) 5 μl/well of the Eu-cAMP tracer working solution and 5 μl/well of the Ulight-anti-cAMP working solution were added to each well of the plate. […] 2. Data Analysis • 1) An activation percentage was calculated by using the following formula:
[formula] • % Activation: activation percentage • Ratiocpd: ratio of emissivity of test compound • RatioLow control: ratio of low emissivity • RatioHigh control: ratio of high emissivity • 2) EC50 was calculated by an XLfit using the Hill equation to fit the activity percentage and a log of a compound concentration. 3. Test Result

SMILES	AUC_D [1]	EC50 [2]
CNC(=O)[C@H]1O[C@@H](n2cnc3c(NCc4ccccc4)nc(-c4cncc(OC)c4)nc32)[C@H](O)[C@@H]1O [compound 187, (2S,3S,4R,5R)-5-(6-(benzylamino)-2-(5-methoxypyridin-3-yl)-9H-purin-9-yl)-3,4-dihydroxyl-N-methyl-tetrahydrofuran-2-formamide]	1269.78 kg·ng·h/mL/mg	14.5 nM
CNC(=O)[C@H]1O[C@@H](n2cnc3c(NCc4cccc(C)n4)nc(-c4cncc(OC)c4)nc32)[C@H](O)[C@@H]1O [compound 111, (2S,3S,4R,5R)-3,4-dihydroxyl-5-(2-(5-methoxypyridin-3-yl)-6-((((6-methylpyridin-2-yl))methyl)amino)-9H-purin-9-yl)-N-methyltetrahydrofuran-2-carboxamide]	230.72 kg·ng·h/mL/mg	7.32 nM
[2H]C([2H])([2H])NC(=O)[C@H]1O[C@@H](n2cnc3c(NCc4ccccc4)nc(-c4ccsc4)nc32)[C@H](O)[C@@H]1O [compound 24, (2S,3S,4R,5R)-5-(6-(benzylamino)-2-(thiophen-3-yl)-9H-purin-9-yl)-3,4-dihydroxyl-N-(methyl-d3)-tetrahydrofuran-2-formamide]	86.00 kg·ng·h/mL/mg	5.77 nM
CNC(=O)[C@H]1O[C@@H](n2cnc3c(NCc4cccc(C(F)(F)F)n4)nc(-c4cncc(Cl)c4)nc32)[C@H](O)[C@@H]1O [compound 290, (2S,3S,4R,5R)-5-(2-(5-chloropyridin-3-yl)-6-(((6-(trifluoromethyl)pyridin-2-yl)methyl)amino)-9H-purin-9-yl)-3,4-dihydroxyl-N-methyltetrahydrofuran-2-carboxamide]	216.77 kg·ng·h/mL/mg	12.4 nM
[2H]C([2H])([2H])NC(=O)[C@H]1O[C@@H](n2cnc3c(NCc4cccs4)nc(-c4cncc(Cl)c4)nc32)[C@H](O)[C@@H]1O [compound 254, (2S,3S,4R,5R)-5-(2-(5-chloropyridin-3-yl)-6-((thiophen-2-ylmethyl)amino)-9H-purin-9-yl)-3,4-dihydroxyl-N-(methyl-d3)tetrahydrofuran-2-carboxamide]	703.00 kg·ng·h/mL/mg	9.51 nM
CNC(=O)[C@H]1O[C@@H](n2cnc3c(NCc4cccc(C)c4)nc(-c4cncc(F)c4)nc32)[C@H](O)[C@@H]1O [compound 161, (2S,3S,4R,5R)-5-(2-(5-fluoropyridin-3-yl)-6-((3-methylbenzyl)amino)-9H-purin-9-yl)-3,4-dihydroxyl-N-methyltetrahydrofuran-2-carboxamide]	994.72 kg·ng·h/mL/mg	0.74 nM
CCOc1cncc(-c2nc(NCc3cccc(C)c3)c3ncn(C4O[C@H](C(=O)NC)[C@@H](O)[C@H]4O)c3n2)c1 (stereo in doubt) [compound 301, (2S,3S,4R,5S)-5-(2-(5-ethoxypyridin-3-yl)-6-((3-methylbenzyl)amino)-9H-purin-9-yl)-3,4-dihydroxyl-N-methyltetrahydrofuran-2-carboxamide]	744.06 kg·ng·h/mL/mg	3.78 nM
[2H]C([2H])([2H])NC(=O)[C@H]1O[C@@H](n2cnc3c(NCc4ccsc4)nc(-c4cncc(Cl)c4)nc32)[C@H](O)[C@@H]1O [compound 255, (2S,3S,4R,5R)-5-(2-(5-chloropyridin-3-yl)-6-((thiophen-3-ylmethyl)amino)-9H-purin-9-yl)-3,4-dihydroxyl-N-(methyl-d3)tetrahydrofuran-2-carboxamide]	406.00 kg·ng·h/mL/mg	8.58 nM
[2H]C([2H])([2H])NC(=O)[C@H]1O[C@@H](n2cnc3c(NCc4cc(Cl)ccc4F)nc(-c4cncc(Cl)c4)nc32)[C@H](O)[C@@H]1O [compound 245, (2S,3S,4R,5R)-5-(6-(5-chloro-2-fluorobenzylamino)-2-(5-chloropyridin-3-yl)-9H-purin-9-yl)-3,4-dihydroxyl-N-((methyl-d3))-tetrahydrofuran-2-carboxamide]	1182.41 kg·ng·h/mL/mg	0.28 nM
CNC(=O)[C@H]1O[C@@H](n2cnc3c(NCc4cccc(C)c4)nc(-c4cccnc4)nc32)[C@H](O)[C@@H]1O [compound 108, (2S,3S,4R,5R)-3,4-dihydroxyl-N-methyl-5-(6-((3-methylbenzyl)amino)-2-(pyridin-3-yl)-9H-purin-9-yl)tetrahydrofuran-2-carboxamide]	801.47 kg·ng·h/mL/mg	1.58 nM
CNC(=O)[C@H]1O[C@@H](n2cnc3c(NCc4cccc(C(F)(F)F)n4)nc(-c4cncc(F)c4)nc32)[C@H](O)[C@@H]1O [compound 289, (2S,3S,4R,5R)-5-(2-(5-fluoropyridin-3-yl)-6-(((6-(trifluoromethyl)pyridin-2-yl)methyl)amino)-9H-purin-9-yl)-3,4-dihydroxyl-N-methyltetrahydrofuran-2-carboxamide]	106.30 kg·ng·h/mL/mg	6.81 nM
CNC(=O)[C@H]1O[C@@H](n2cnc3c(NCc4cc(Cl)ccn4)nc(-c4cncc(OC)c4)nc32)[C@H](O)[C@@H]1O [compound 185, (2S,3S,4R,5R)-5-(6-((4-chloropyridin-2-yl)methylamino)-2-(5-methoxypyridin-3-yl)-9H-purin-9-yl)-3,4-dihydroxyl-N-methyl-tetrahydrofuran-2-formamide]	589.63 kg·ng·h/mL/mg	< 0.51 nM
CNC(=O)[C@H]1O[C@@H](n2cnc3c(NCc4cccc(C)c4)nc(-c4cncc(C)c4)nc32)[C@H](O)[C@@H]1O [compound 284, (2S,3S,4R,5R)-5-(6-(3-methylbenzylamino)-2-(5-methylpyridin-3-yl)-9H-purin-9-yl)-3,4-dihydroxyl-N-methyl-tetrahydrofuran-2-formamide]	8902.66 kg·ng·h/mL/mg	2.85 nM
CNC(=O)[C@H]1O[C@@H](n2cnc3c(NCc4cccc(C)c4)nc(-c4cncc(Cl)c4)nc32)[C@H](O)[C@@H]1O [compound 160, (2S,3S,4R,5R)-5-(2-(5-chloropyridin-3-yl)-6-((3-methylbenzyl)amino)-9H-purin-9-yl)-3,4-dihydroxyl-N-methyltetrahydrofuran-2-carboxamide]	1900.75 kg·ng·h/mL/mg and 1515.94 kg·ng·h/mL/mg	3.53 nM
CNC(=O)[C@H]1O[C@@H](n2cnc3c(NCc4cc(Cl)ccn4)nc(-c4cccnc4)nc32)[C@H](O)[C@@H]1O [compound 182, (2S,3S,4R,5R)-5-(6-((4-chloropyridin-2-yl)methylamino)-2-(pyridin-3-yl)-9H-purin-9-yl)-3,4-dihydroxyl-N-methyl-tetrahydrofuran-2-formamide]	235.62 kg·ng·h/mL/mg	< 0.51 nM
CNC(=O)[C@H]1O[C@@H](n2cnc3c(NCc4cccc(Cl)n4)nc(-c4cncc(OC)c4)nc32)[C@H](O)[C@@H]1O [compound 230, (2S,3S,4R,5R)-5-(6-(((6-chloropyridin-2-yl)methyl)amino)-2-(5-methoxypyridin-3-ly)-9H-purin-9-yl)-3,4-dihydroxyl-N-methyltetrahydrofuran-2-carboxamide]	212.91 kg·ng·h/mL/mg	8.68 nM
CNC(=O)[C@H]1O[C@@H](n2cnc3c(NCc4cccc(C(F)(F)F)c4)nc(-c4cncc(Cl)c4)nc32)[C@H](O)[C@@H]1O [compound 179, (2S,3S,4R,5R)-5-(6-(3-(trifluoromethyl)benzylamino)-2-(5-chloropyridin-3-yl)-9H-purin-9-yl)-3,4-dihydroxyl-N-methyl-tetrahydrofuran-2-formamide]	273.37 kg·ng·h/mL/mg	9.44 nM
CNC(=O)[C@H]1O[C@H](n2cnc3c(NCc4cccc(C)c4)nc(-c4cncc(OC)c4)nc32)[C@H](O)[C@@H]1O [compound 300]	729.20 kg·ng·h/mL/mg	2.13 nM
[2H]C([2H])([2H])NC(=O)[C@H]1O[C@@H](n2cnc3c(NC([2H])([2H])[2H])nc(-c4ccsc4)nc32)[C@H](O)[C@@H]1O [compound 92, (2S,3S,4R,5R)-3,4-dihydroxyl-N-(methyl-d3)-5-(6-(methyl-d3-amino)-2-(thiophen-3-yl)-9H-purin-9-yl)tetrahydrofuran-2-carboxamide]	83.00 kg·ng·h/mL/mg	< 0.51 nM
